Results taken from patent US8859527B2 (priority 2009, dated 2014).
Read-outs that look alike come from different tables or passages of the source.

Assays:
[1] = tested on: C-6 (rat neurogliocytoma cell line); experiment: in vitro growth inhibition of tumor cells, C-6; assay type: cell-based; conditions: C6; for Inhibition effects on in vitro growth: 48 hours
Procedure: (§1) The tumor strains are A-549 (human lung adenocarcinoma cell line), BGC-823 (human gastric cancer cell line), C-6 (rat neurogliocytoma cell line), Hep G2 (human hepatic cancer cell line), HL-60 (human leukemia cell line), K-562 (human erythremia cell line) and Hela (human cervical cancer cell line). […] The drug was prepared as a stock solution of 10^−2 M by using physiological saline and diluted into the test solution in a gradient composed of five concentrations: C1 5×10^−5 M, C2 10^−5 M, C3 10^−6 M, C4 10^−7 M and C5 10^−8 M.
(§2) Experimental method: different tumor cells in exponential growth phase are inoculated in 96-well plates in a certain amount and the selected samples are added after the cells are cultured for 24 hours (suspension cells can be directly added after being inoculated), after the cells are incubated at 37° C. and 5% CO2 for another 48 hours, […] is added for further incubation for another 4 hours, and finally the samples are examined on a microplate reader after dissolving with DMSO.

[2] = tested on: BGC-823 (human gastric cancer cell line); experiment: in vitro growth inhibition of tumor cells, BGC-823; assay type: cell-based; conditions: for Inhibition effects on in vitro growth: 48 hours
Procedure: as §1, §2

[3] = tested on: K-562 (human erythremia cell line); experiment: in vitro growth inhibition of tumor cells, K-562; assay type: cell-based; conditions: for Inhibition effects on in vitro growth: K562, 48 hours
Procedure: as §1, §2

[4] = tested on: A-549 (human lung adenocarcinoma cell line); experiment: in vitro growth inhibition of tumor cells, A-549; assay type: cell-based; conditions: for Inhibition effects on in vitro growth: A549, 48 hours
Procedure: as §1, §2

[5] = tested on: human lung cancer A-549; conditions: cited from earlier work
[6] = tested on: HL-60 (human leukemia cell line); experiment: in vitro growth inhibition of tumor cells, HL-60; assay type: cell-based; conditions: for Inhibition effects on in vitro growth: 48 hours
Procedure: as §1, §2

[7] = tested on: P-388 leukemia; conditions: P-388 leukemia cell line; cited from earlier work
[8] = tested on: transplanted tumor S180; conditions: S180 mice; for Body weight After administration / Tumor weight / Tumor-inhibition rate: once every two days, four times
Procedure: (§3) Experimental groups: three dosage groups were set up for DPT, 10, 5 and 2.5 mg/kg; the blank control group: cyclophosphamide (CTX) group, Etoposide group 20 mg/kg.
(§4) Administration route: injection via tail vein, it is administered in a dosage of 0.4 ml/20 g body weight. Administration period: the drug is administrated 24 hours after the inoculation, once every two days for four times in total.
(§5) Experimental methods: 60 ICR mice with standard weight of from 18 to 22 g are inoculated with S-180 or Heps solid tumor according to the test method for transplanted tumors, hypodermic inoculation with 0.2 ml is carried out in the armpit in the anterior limb of every mouse. The body weight is determined 24 hours after the inoculation and they are randomly divided into six groups: the blank control group, the CTX group (20 mg/kg), the Etoposide group (20 mg/kg), the DPT group (10, 5 and 2.5 mg/Kg). The drug is administrated 24 hours after the inoculation once for every two days for 4 times, and tumor-bearing mice are killed on the next after drug withdrawal and their body weights are measured, and the separated tumor mess is weighed, and all of the data are subjected to statistical analyses (t-test).

[9] = tested on: transplanted tumor Heps; conditions: Heps mice; for Body weight After administration / Tumor inhibition rate / Tumor weight: once every two days, four times
Procedure: as §3, §4, §5

[10] = tested on: Hela (human cervical cancer cell line); experiment: in vitro growth inhibition of tumor cells, Hela; assay type: cell-based; conditions: for Inhibition effects on in vitro growth: hela, 48 hours
Procedure: as §1, §2

COc1cc([C@@H]2c3cc4c(cc3C[C@H]3COC(=O)[C@@H]32)OCO4)cc(OC)c1OC [DPT, Deoxypodophyllotoxin]
Inhibition effects on in vitro growth ([1]; 5 × 10^−5M): 84.41% | Inhibition effects on in vitro growth ([1]; 10^−5M): 58.54% | inhibition effects compared with Etoposide ([1]; 10^−5 to 10^−8 M): significant better than that of Etoposide | Inhibition effects on in vitro growth ([1]; 10^−6M): 55.01% | Inhibition effects on in vitro growth ([1]; 10^−7M): 54.11% | Inhibition effects on in vitro growth ([1]; 10^−8M): 52.34% | Inhibition effects on in vitro growth ([2]; 5 × 10^−5M): 52.54% | Inhibition effects on in vitro growth ([2]; 10^−5M): 35.31% | inhibition effects compared with Etoposide ([2]; 10^−5 to 10^−8 M): significant better than that of Etoposide | Inhibition effects on in vitro growth ([2]; 10^−6M): 33.2% | Inhibition effects on in vitro growth ([2]; 10^−7M): 30.35% | Inhibition effects on in vitro growth ([2]; 10^−8M): 24.49% | Inhibition effects on in vitro growth ([3]; 5 × 10^−5M): 67.05% | Inhibition effects on in vitro growth ([3]; 10^−5M): 54.02% | Inhibition effects on in vitro growth ([3]; 10^−6M): 50.95% | Inhibition effects on in vitro growth ([3]; 10^−7M): 43.77% | Inhibition effects on in vitro growth ([3]; 10^−8M): 35.82% | inhibition effects compared with Etoposide ([3]; K-562, 10^−5 to 10^−8 M): significant better than that of Etoposide | Inhibition effects on in vitro growth ([4]; 5 × 10^−5M): 59.18% | Inhibition effects on in vitro growth ([4]; 10^−5M): 56% | Inhibition effects on in vitro growth ([4]; 10^−6M): 53.5% | Inhibition effects on in vitro growth ([4]; 10^−7M): 52.24% | Inhibition effects on in vitro growth ([4]; 10^−8M): 50.77% | inhibition effects compared with Etoposide ([4]; A-549, 10^−5 to 10^−8 M): significant better than that of Etoposide | in vitro inhibition effects [5]: in vitro inhibition effects | Inhibition effects on in vitro growth ([6]; 5 × 10^−5M): 57.37% | Inhibition effects on in vitro growth ([6]; 10^−5M): 39.41% | inhibition effects compared with Etoposide ([6]; 10^−5 to 10^−8 M): significant better than that of Etoposide | Inhibition effects on in vitro growth ([6]; 10^−6M): 36.83% | Inhibition effects on in vitro growth ([6]; 10^−7M): 29.27% | Inhibition effects on in vitro growth ([6]; 10^−8M): 14.96% | in vitro inhibition effects [7]: in vitro inhibition effects | Body weight Before administration ([8]; 2.5 mg/kg iv group): 19.70 ± 1.16 g | Body weight After administration ([8]; 2.5 mg/kg iv): 24.90 ± 2.47 g | Tumor weight ([8]; 2.5 mg/kg iv): 1.41 ± 0.30 g | Tumor-inhibition rate ([8]; 2.5 mg/kg iv): 23.44% | Body weight Before administration ([8]; 5 mg/kg iv group): 19.00 ± 0.94 g | Body weight After administration ([8]; 5 mg/kg iv): 22.50 ± 2.55 g | Tumor weight ([8]; 5 mg/kg iv): 1.08 ± 0.26 g | Tumor-inhibition rate ([8]; 5 mg/kg iv): 41.67% | Body weight Before administration ([8]; 10 mg/kg iv group): 19.40 ± 1.71 g | Body weight After administration ([8]; 10 mg/kg iv): 22.50 ± 2.07 g | Tumor weight ([8]; 10 mg/kg iv): 0.84 ± 0.27 g | Tumor-inhibition rate ([8]; 10 mg/kg iv): 54.53% | Body weight Before administration ([9]; 2.5 mg/kg iv group): 20.20 ± 1.48 g | Body weight After administration ([9]; 2.5 mg/kg iv): 24.50 ± 2.22 g | Tumor inhibition rate ([9]; 2.5 mg/kg iv): 32.10% | Tumor weight ([9]; 2.5 mg/kg iv): 1.34 ± 0.29 g | Body weight Before administration ([9]; 5 mg/kg iv group): 20.80 ± 1.40 g | Body weight After administration ([9]; 5 mg/kg iv): 24.00 ± 3.46 g | Tumor inhibition rate ([9]; 5 mg/kg iv): 42.27% | Tumor weight ([9]; 5 mg/kg iv): 1.14 ± 0.15 g | Body weight Before administration ([9]; 10 mg/kg iv group): 21.40 ± 0.84 g | Body weight After administration ([9]; 10 mg/kg iv): 22.90 ± 2.73 g | Tumor inhibition rate ([9]; 10 mg/kg iv): 52.09% | Tumor weight ([9]; 10 mg/kg iv): 0.94 ± 0.32 g | inhibition effects compared with Etoposide ([10]; Hela, 10^−5 to 10^−8 M): significant better than that of Etoposide | Inhibition effects on in vitro growth ([10]; 5 × 10^−5M): 62.68% | Inhibition effects on in vitro growth ([10]; 10^−5M): 49.89% | Inhibition effects on in vitro growth ([10]; 10^−6M): 47.9% | Inhibition effects on in vitro growth ([10]; 10^−7M): 46.57% | Inhibition effects on in vitro growth ([10]; 10^−8M): 42.9%
